Test results as given in patent publication US6800659B2, “Compounds for modulating cell proliferation” (HSC Research and Development Limited Partnership, priority 2000, dated 2004).
Values belong to the compound of their own block, whether it stands above or below them.

Key:
[1] = system: Philadelphia positive acute lymphoblastic leukemia (Ph+ ALL) cells; assay: Colony growth of Philadelphia positive ALL cells in methylcellulose culture; type: cell-based, human
Protocol: (§1) Ph+ ALL cells were plated in 1 ml volumes, in the absence of exogenous growth factors, into 35 mm petri dishes (Nunc, Gibco) containing alpha MEM (Gibco) plus 10% FCS (Cansera Rexdale, ON.) in 0.9% (vol/vol) methylcellulose (Fluka, Switzerland) with the indicated concentrations of CR4. Cultures were set at 37° C., 5% CO2 in a humidified atmosphere. Colonies consisting of more than 20 cells were counted at 12 days or earlier using an inverted microscope.
as §1, with “ALL” for “Ph+ ALL”, “20%” for “10%”, “and” for “with”, “compound” for “CR4.”, “atmosphere” for “atmosphere.”
as §1, with “ALL” for “Ph+ ALL”, “20%” for “10%”, “ON)” for “ON.)”, “0.90%” for “0.9%”, “and” for “with”, “compound.” for “CR4.”
as §1, with “ALL” for “Ph+ ALL”, “20%” for “10%”, “and” for “with”, “CR24.” for “CR4.”, “9” for “12”
as §1, with “ALL” for “Ph+ ALL”, “20%” for “10%”, “and” for “with”, “CR19.” for “CR4.”, “9” for “12”

normal bone marrow cells [2] = assay: CFU-GEMM assay: normal bone marrow differentiation in culture; type: cell-based; settings: for inhibition of BFU-E colony formation: 20 μM
Protocol: (§2) The CFU-GEMM assay was performed according to Fauser and Messner (1978, Blood, 52(6) 143-8) and Messner and Fausser (1980, Blut, 41(5) 327-33) with some variations. In brief, heparinized bone marrow cells were layered over Percoll (1.077 gm/ml) (Pharmacia Fine Chemical, Piscataway N.J.) and centrifuged at 400 g at 4° C. for 10 minutes to remove neutrophils and RBCs. The fractionated BM cells at 2×10^5 cells/ml were cultured in IMDM (OCl, Toronto) containing 0.9% (vol/vol) methylcellulose supplemented with 30% FCS (Cansera Rexdale, ON.) or normal human plasma, a cocktail of cytokines containing G-CSF (10 ng/ml, Amgen), IL-3 (40 U/ml, Immunex), MGF (50 ng/ml, Immunex), Erythropoietin (2 u/ml, Epprex) or TPO (10 ng/ml, Amgen), 5×10^−5M β-2-mercaptoethanol and the specified concentration of CR4. The culture mixture was plated in 1 ml volumes into 35 mm petri dishes and incubated at 37° C., 5% CO2 in a humidified atmosphere. All cultures were evaluated at 14 days for the number of BFU-E colonies (defined as aggregates of more than 500 hemoglobinized cells or, 3 or more erythroid subcolonies), OFU-GM colonies (defined as granulocyte or monocyte-macrophage cells or both), CFU-Meg colonies (comprising 4 or more megakaryocytes) and CFU-GEMM colonies (a mixed population comprising of all elements).
as §2, with “1243-8)” for “143-8)”, “concentrations” for “concentration”, “CR19.” for “CR4.”, “hemaglobinized” for “hemoglobinized”, “subcolonies) and CFU-C” for “subcolonies), OFU-GM”, “both).” for “both), CFU-Meg colonies (comprising 4 or more megakaryocytes) and CFU-GEMM colonies (a mixed population comprising of all elements).”
as §2, with “1243-8)” for “143-8)”, “variations (British Journal of Haematology, 1992, 80, p40-48).” for “variations.”, “test compound.” for “CR4.”, “CO2,” for “CO2”, “subcolonies) and CFU-C” for “subcolonies), OFU-GM”, “both).” for “both), CFU-Meg colonies (comprising 4 or more megakaryocytes) and CFU-GEMM colonies (a mixed population comprising of all elements).”

[3] = system: acute lymphoblastic leukemia, Philadelphia positive ALL, acute myeloid leukemia, myeloma and B-lineage lymphoma; assay: Growth of cancer cells in culture, summary over cell types; type: cell-based; settings: for effectiveness against a variety of cell types (Acute Lymphoblastic Leukemia, Philadelphia positive Leukemia, Acute Myeloid Leukemia): in culture
[4] = system: Philadelphia positive ALL, AML and lymphoma; assay: High dose in vitro (ex vivo) purging assays, summary; type: cell-based
Text: […] Cancer cell death was effected by the induction of apoptosis. Accordingly, in another aspect of the invention, there is provided a method for killing cancer cells by ex vivo treatment of bone marrow from a patient with cancer with a compound of the invention, preferably CR4 and CR11 and then re-introducing the treated (or purged) bone marrow into the patient.

normal bone marrow cells [5] = assay: In vitro purging of normal bone marrow, then colony assay; type: cell-based
Protocol: Heparinized bone marrow cells were layered over Percoll (1.077 gm/ml) (Pharmacia Fine Chemical, Piscataway N.J.) and centrifuged at 400 g at 4° C. for 10 minutes to remove neutrophils and RBCs.
For the purging process, the cells were resuspended at 1×10^6/ml in complete medium with or without 50 μM CR4. The cells were incubated with the CR4 for two and a half hours at 37° C., 5% CO2. At the end of this period the cells were thoroughly washed in medium to remove CR4 and then cultured at 2×10^5 cells/ml in IMDM (OCl, Toronto) containing 0.9% (vol/vol) methylcellulose supplemented with 30% FCS (Cansera Rexdale, ON.) or normal human plasma, a cocktail of cytokines containing G-CSF (10 ng/ml, Amgen), IL-3 (40 U/ml, Immunex), MGF (50 ng/ml, Immunex), Etryhropoietin (2 u/ml, Epprex) or TPO (10 ng/ml, Amgen) and 5×10^−5M b-2-mercaptoethanol. The culture mixture was plated in 1 ml volumes into 35 mm petri dishes and incubated at 37° C., 5% CO2 in a humidified atmosphere. All cultures were evaluated at 14 days for the number of BFU-E colonies (defined as aggregates of more than 500 hemaglobinized cells or, 3 or more erythroid subcolonies), CFU-C colonies (defined as granulocyte or monocyte-macrophage cells or both) and CFU-GEMM colonies (a mixed population comprising of all elements).
For the purging process, the cells were resuspended at 1×10^6/ml in complete medium with or without 50 μM CR11. The cells were incubated with the tryrphostin for seven hours at 37° C., 5% CO2. At the end of this period the cells were thoroughly washed in medium to remove CR11 and then cultured at 2×10^5 cells/ml in IMDM (OCl, Toronto) containing 0.9% (vol/vol) methylcellulose supplemented with 30% FCS (Cansera Rexdate, ON.) or normal human plasma, a cocktail of cytokines containing G-CSF (10 ng/ml, Amgen), IL-3 (40 U/ml, Immunex), MGF (50 ng/ml, Immunex), Erythropoietin (2 u/ml, Epprex) or TPO (10 ng/ml, Amgen) and 5×10^−5M β-2-mercaptoethanol. The culture mixture was plated in 1 ml volumes into 35 mm petri dishes and incubated at 37° C., 5% CO2 in a humidified atmosphere. All cultures were evaluated at 14 days for the number of BFU-E colonies (defined as aggregates of more than 500 hemoglobinized cells or, 3 or more erythroid subcolonies), CFU-C colonies (defined as granulocyte or monocyte-macrophage cells or both) and CFU-GEMM colonies (a mixed population comprising of all elements).

Ph+ ALL cells = assay: In vitro purging of Philadelphia positive ALL with CR11; type: cell-based, human; settings: 50 μM, 7 hours exposure (FIG. 22)
Protocol: For the purging assay, the cells were resuspended in complete medium with or without CR11 as indicated and incubated at 37° C., 5% CO2 for 0-7 hours. Cells were then washed thoroughly with medium to remove the CR11, resuspended and plated in 1 ml volumes, in the absence of exogenous growth factors, into 35 mm petri dishes (Nunc, Gibco) containing alpha MEM (Gibco) plus 20% FCS (Cansera Rexdale, ON.) in 0.9% (vol/vol) methylcellulose (Fluka, Switzerland). Cultures were set at 37° C., 5% CO2 in a humidified atmosphere. Colonies consisting of more than 20 cells were counted at 9 days or earlier using an inverted microscope.

[6] = low nanomolar doses, long term exposure

- inhibition of bone marrow colony formation (normal bone marrow cells [2]; either 10 or 20 μM, 14 days (FIG. 13)): minimal inhibition
SMILES: COc1cc(/C=C/C=C(\C#N)C(=O)NCCO)cc(OC)c1O [CR24, (E,E)-2-(β-Ethanolaminocarbonyl)-3-(3,5-dimethoxy-4-hydroxystyryl)acrylonitrile]
- inhibition of cell growth ([1]; between 2.5 and 5 μM, colonies at 9 days (FIG. 10)): virtually complete inhibition
- effectiveness against Ph+ ALL cells ([1]; concentrations as low as 0.5 μM, colonies at 9 days (FIG. 10)): effective

- inhibition of BFU-E colony formation (normal bone marrow cells [2]; 14 days (FIG. 13)): caused inhibition
SMILES: N#C/C(=C\C=C\c1ccc(O)c(O)c1)C(=O)NCc1ccc(O)c(O)c1 [CR21, (E,E)-2(3,4-Dihydroxybenzylaminocarbonyl)-3-(3,4-dihydroxystyryl)acrylonitrile]
- inhibition of cell growth ([1]; 5 μM, Example 42, FIG. 8): inhibited cell growth
- inhibition of cell growth ([1]; 1-2.5 μM, Example 43, FIG. 9): significant inhibition

- inhibition of BFU-E colony formation (normal bone marrow cells [2]; 14 days (FIG. 13)): caused inhibition
SMILES: N#C/C(=C\C=C\c1ccc(O)c(O)c1)C(N)=O [CR17, (E,E)-2-Aminocarbonyl-3-(3,4-dihydroxystyryl)acrylonitrile]
- inhibition of cell growth ([1]; 1-2.5 μM, Example 42, FIG. 8): significant inhibition
- inhibition of cell growth ([1]; 1-2.5 μM, Example 43, FIG. 9): significant inhibition

- inhibition of the development of BFU-E colonies (normal bone marrow cells [2]; 2.5 μM, 14 days (FIG. 12)): significant inhibition
- BFU-E colonies (normal bone marrow cells [2]; 5 μM, 14 days (FIG. 12)): virtually absent
SMILES: N#C/C(=C\C=C\c1ccccc1)C(=O)NCc1ccc(O)c(O)c1 [CR19, (E,E)-2-(3,4-Dihydroxybenzylaminocarbonyl)-3-styrylacrylonitrile]
- effectiveness against Ph+ ALL cells ([1]; nanomolar concentrations, colonies at 9 days (FIG. 11)): highly effective
- effectiveness against a variety of cell types (Acute Lymphoblastic Leukemia, Philadelphia positive Leukemia, Acute Myeloid Leukemia) [3]: highly effective
- toxicity to cancer cells [3, 6]: highly toxic
- CFU-C colony formation (normal bone marrow cells [2]; 2.5 μM, 14 days (FIG. 12)): boosted
- CFU-C colony formation (stimulatory effect) (normal bone marrow cells [2]; 5 μM, 14 days (FIG. 12)): stimulatory effect disappeared
- normal cell growth and differentiation (normal bone marrow cells [2]; [6]): unaffected

- BFU-E, CFU-GEMM and CFU-C colonies (normal bone marrow cells [5]; seven hours exposure to 50 μM (FIG. 21)): all normal
SMILES: COc1cc(/C=C/C=C(\C#N)C(=O)NCc2ccc(O)c(O)c2)cc(OC)c1O [CR11, (EE)-2-(3,4-Dihydroxybenzylaminocarbonyl)-3-(3,5-dimethoxy-4-hydroxystyryl)acrylonitrile]
- effectiveness as ex vivo purging agents [4]: effective
- inhibition of colony formation (normal bone marrow cells [5]; seven hours exposure to 50 μM, colonies at 14 days (FIG. 21)): did not result in any significant inhibition
- effectiveness against a variety of cell types (Acute Lymphoblastic Leukemia, Philadelphia positive Leukemia, Acute Myeloid Leukemia) [3]: highly effective
- killing of Ph+ ALL cells (Ph+ ALL cells): complete killing
